pKa data for 14 molecules are collected here from US20260225997A1, “IONIZABLE AMINE LIPIDS” (Intellia Therapeutics, Inc., priority 2018, published 2026).

The nature of the series: pKa measurement of unformulated amine lipid (fluorescence, method of Jayaraman et al.). It is filed as physicochemical. Conditions: 100 μM in 0.1 M phosphate buffer pH 4.5-9.0. The protocol:
The pKa of each amine lipid was determined according to the method in Jayaraman, et al. (Angewandte Chemie, 2012) with the following adaptations. […] Lipid was diluted to 100 μM in 0.1 M phosphate buffer (Boston Bioproducts) where the pH ranged from 4.5-9.0. Fluorescence intensity was measured using excitation and emission wavelengths of 321 nm and 448 nm.

Regarding `CCCCCCCCCOC(=O)CCCCCCCN(CCCCCCC(OCCCCCCCC)OCCCCCCCC)CCCOC(C)=O` [Compound 50, nonyl 8-((3-acetoxypropyl)(7,7-bis(octyloxy)heptyl)amino)octanoate], the pKa (as a rule, the pH at which an ionisable group is half protonated) was 5.45.
Then `CCCCCCCCOC(CCCCCCN(CCO)CCCCCCCC(=O)OCCCCCCC)OCCCCCCCC` [Compound 31, heptyl 8-((7,7-bis(octyloxy)heptyl)(2-hydroxyethyl)amino)octanoate], with 6.47; and `CCCCCCCCCOC(=O)CCCCCCCN(CCCO)CCCCCCC(OCCCCCCCC)OCCCCCCCC` [Compound 37, nonyl 8-((7,7-bis(octyloxy)heptyl)(3-hydroxypropyl)amino)octanoate], with 6.3; and `CCCCCCCCCOC(=O)CCCCCCCN(CCCCCCC(OCCCCCCCC)OCCCCCCCC)CCCNS(C)(=O)=O` [Compound 48, nonyl 8-((7,7-bis(octyloxy)heptyl)(3-(methylsulfonamido)propyl)amino)octanoate], with 7.61.
Take `CCCCCCCCCOC(=O)CCCCCCCN(CCCCCCC(OCCCCCCCC)OCCCCCCCC)CCNS(C)(=O)=O` [Compound 47, nonyl 8-((7,7-bis(octyloxy)heptyl)(2-(methylsulfonamido)ethyl)amino)octanoate]: the pKa was found to be 6.93.
In turn, `CCCCCCCCOC(CCCCCCN(CCO)CCCCCCCC(=O)OCCCCC)OCCCCCCCC` [Compound 34, pentyl 8-((7,7-bis(octyloxy)heptyl)(2-hydroxyethyl)amino)octanoate] had a pKa of 6.47.
With `CCCCCCCCOC(CCCCCCCN(CCO)CCCCCCCCCCOC(=O)CCCCCC)OCCCCCCCC` [Compound 24, 10-((8,8-bis(octyloxy)octyl)(2-hydroxyethyl)amino)decyl heptanoate] the figure was 5.95; with `CCCCCCCCCOC(=O)CCCCCCCN(CCCN)CCCCCCC(OCCCCCCCC)OCCCCCCCC` [Compound 38, nonyl 8-((3-aminopropyl)(7,7-bis(octyloxy)heptyl)amino)octanoate], 7.81; with `CCCCCCCCOC(CCCCCCN(CCO)CCCCCCCC(=O)OC(C)CCCCCC)OCCCCCCCC` (centres unmarked) [Compound 32, octan-2-yl 8-((7,7-bis(octyloxy)heptyl)(2-hydroxyethyl)amino)octanoate], 6.36.
Then `CCCCCCCCOC(CCCCCCN(CCO)CCCCCCCC(=O)OC(CC)CCCCCC)OCCCCCCCC` (centres unmarked) [Compound 33, nonan-3-yl 8-((7,7-bis(octyloxy)heptyl)(2-hydroxyethyl)amino)octanoate], with 6.33.
Then `CCCCCCCCCOC(=O)CCCCCCCN(CCCCCCC(OCCCCCCCC)OCCCCCCCC)CCOC(C)=O` [Compound 49, nonyl 8-((2-acetoxyethyl)(7,7-bis(octyloxy)heptyl)amino)octanoate], with 5.32; and `CCCCCCCCOC(CCCCCCN(CCO)CCCCCCCC(=O)OC(CC)CCCC)OCCCCCCCC` (centres unmarked) [Compound 35, heptan-3-yl 8-((7,7-bis(octyloxy)heptyl)(2-hydroxyethyl)amino)octanoate], with 6.37; and `CCCCCCCCCOC(=O)CCCCCCCN(CCN)CCCCCCC(OCCCCCCCC)OCCCCCCCC` [Compound 36, nonyl 8-((2-aminoethyl)(7,7-bis(octyloxy)heptyl)amino)octanoate], with 7.2.
`CCCCCCCCOC(CCCCCCCN(CCO)CCCCCCCC(=O)OC(C)CCCCCCCC)OCCCCCCCC` (centres unmarked) [Compound 21, decan-2-yl 8-((8,8-bis(octyloxy)octyl)(2-hydroxyethyl)amino)octanoate] gave a pKa of 5.99.
